Reference: paper PMC7464552, “Structural Basis of Beneficial Design for Effective Nicotinamide Phosphoribosyltransferase Inhibitors” (Molecules, 2020)

Legend:
[1] = system: NAD+ levels in the cancer cells; experiment: Reduction of NAD+ levels in the cancer cells after 24 h-treatment; assay type: cell-based, human
Description: (§1) To confirm the marked differences of anti-NAMPT activities between 3a and 3b, the anti-proliferation effects of these inhibitors on the human colon cancer cell line HCT116 were examined after continuous exposure for 72 h. […] In addition, there was little cytotoxicity on non-cancer cell lines, such as TIG-120, WI38 and MRC-5 cells. Both 3a and 3b caused more than 90% reduction of NAD^+ levels in the cancer cells after 24 h-treatment and thereby induced cell death.

HCT116 cells = experiment: Cell activity (anti-proliferation) assay, WST-8, 72 h; assay type: cell-based, human; conditions: for rescue of HCT116 cells from cell death by supplementation of NMN: 100 μM NMN in the cell culture medium, 72 h; for EC50: Homo sapiens, HCT-116, read-out: 50% effective concentration (EC50), anti-proliferation, HCT116, continuous exposure for 72 h, WST-8
Description: as §1
HCT116 cell was obtained from American Type Culture Collection (ATCC) (Manassas, US) and cultured in Dulbecco’s modified Eagle medium (DMEM) (FUJIFILM Wako Pure Chemical Corporation) supplemented with 10% of fetal bovine serum (Biosera Europe; Nuaillé, France), 100 Units/mL of penicillin G and 100 μg/mL of Streptomycin (FUJIFILM Wako Pure Chemical Corporation).
One thousand HCT116 cells were inoculated into the 96-well transparent cell culture plate and cultured for 24 h. The medium was changed to new medium that contained the tested compounds and was further cultivated for 72 h. Following the culture, 1/10 volume of the WST-8 reagent (FUJIFILM Wako Pure Chemical Corporation) was added and incubated for 1 h. After the incubation, the absorbance of the samples was detected at 450 nm using a SYNERGY HTX (BioTek Instruments, Inc.). Cell activity was expressed as percentage of control cells treated with vehicle alone.
(§2) Figure 3 Biochemical properties of 3a and 3b. (a) The inhibitory activities of 3a (open circle), 3b (open triangle) and 1 (open square) against NAMPT enzyme were examined, as described previously. NAMPT activity was measured using a coupled-enzyme reaction system (CycLex NAMPT colorimetric assay kit) in 96-well plate format using the one-step method. Data are the averages of three independent experiments, and the bars indicate the standard error (SE) values. (b) The anti-proliferative effects of 3a (circle) and 3b (triangle) on HCT116 cells were investigated as described previously. HCT116 cells were treated with the indicated concentrations of each inhibitor with (closed symbol) or without (open symbol) 100 μM NMN for 72 h. The cell activity (% of control) was measured by use of the WST-8 assay. Data are presented as the means of three independent experiments ± SE, and the bars indicate the SE values.

recombinant NAMPT = molecular target: T1, recombinant NAMPT (Homo sapiens, UniProt P43490); experiment: Enzymatic NAMPT assay (CycLex NAMPT colorimetric coupled-enzyme reaction system); assay type: biochemical; conditions: for IC50: titration curves of Figure 3a, coupled-enzyme colorimetric assay, read-out: IC50 (NAMPT inhibitory activity)
T1 construct: purchased MEDICAL & BIOLOGICAL LABORATORIES CO., LTD; (CycLex NAMPT Colorimetric Assay Kit)
T1 sequence (P43490 whole entry): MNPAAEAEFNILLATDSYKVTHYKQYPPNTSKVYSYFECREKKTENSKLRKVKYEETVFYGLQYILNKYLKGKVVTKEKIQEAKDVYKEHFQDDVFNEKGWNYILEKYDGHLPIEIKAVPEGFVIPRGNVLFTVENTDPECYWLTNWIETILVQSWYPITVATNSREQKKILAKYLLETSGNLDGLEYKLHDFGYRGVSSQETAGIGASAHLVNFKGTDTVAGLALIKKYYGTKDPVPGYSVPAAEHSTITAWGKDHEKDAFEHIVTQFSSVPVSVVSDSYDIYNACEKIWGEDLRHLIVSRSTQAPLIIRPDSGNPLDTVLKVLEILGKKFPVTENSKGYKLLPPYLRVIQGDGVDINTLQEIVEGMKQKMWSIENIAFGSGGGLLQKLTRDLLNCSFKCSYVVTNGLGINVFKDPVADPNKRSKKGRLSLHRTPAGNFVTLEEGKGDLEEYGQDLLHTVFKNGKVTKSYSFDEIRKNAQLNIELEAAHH
Description: For the inhibitory effects of 3a and 3b on NAMPT activity, recombinant NAMPT activity was measured using a coupled-enzyme reaction system (CycLex NAMPT Colorimetric Assay Kit: MEDICAL & BIOLOGICAL LABORATORIES CO., LTD., Nagoya, Japan) according to the manufacturer’s instructions, as described previously. Briefly, NAMPT enzyme and tested compounds were put on the 96-well transparent plate. […] After a brief incubation, the absorbance of the samples was detected at 450 nm on every 10 min until 60 min using a SYNERGY HTX (BioTek Instruments, Inc.; Winooski, VT, USA). The inhibition rates were calculated by the initial slope of the absorbance of the tested samples divided by that of the control wells. The IC50 values for the samples were calculated by 4-parameter logistic regression using Image J 1.48v (https://imagej.nih.gov/ij/).
as §2, with “(a) The inhibitory activities of 3a (open circle), 3b (open triangle) and 1 (open square) against NAMPT enzyme were examined, as described previously.” left out

Row | Structure (SMILES) | reduction of NAD+ levels [1] | rescue of HCT116 cells from cell death by supplementation of NMN (HCT116 cells) | EC50 (HCT116 cells) [nM] | fold stronger NAMPT inhibitory activity than 1 (recombinant NAMPT; ratio of IC50 values, versus 1) | IC50 (recombinant NAMPT) [nM] | fold higher EC50 than 3a (HCT116 cells; HCT116, 72 h, ratio of EC50 values, versus 3a) | fold weaker NAMPT inhibitory activity than 3a (recombinant NAMPT; ratio of IC50 values, versus 3a)
1 | O=C(NCCCCC1CCN(C(=O)c2ccccc2)CC1)c1cc2cnccc2[nH]1 [Compound 3a, N-(4-(1-benzoylpiperidin-4-yl)butyl)-1H-pyrrolo[3,2-c]pyridine-2-carboxamide] | more than 90% | significantly rescue | 0.48 | approximately 5 fold | 110 | – | –
2 | O=C(NCCCCN1CCN(C(=O)c2ccccc2)CC1)c1cc2cnccc2[nH]1 [Compound 3b, N-(4-(4-Benzoylpiperazin-1-yl)butyl)-1H-pyroro[3,2-c]pyridine-2-carboxamide] | more than 90% | significantly rescue | 87.5 | – | 5060 | approximately 200 fold | about 50 fold
